Assay results published in patent US7713969B2, “Compositions and methods for treatment of cancer” (ArQule, Inc., priority 2005, dated 2010).

Test system: PACA-2 human pancreatic cancer xenograft
Experiment: Pancreatic cancer xenograft model (Example 88)
Assay type: in vivo, mice
Conditions: for optimal tumor growth inhibition: daily 5 days on/2 off, 20 doses
Experimental: PACA-2 human pancreatic cancer cells were inoculated subcutaneously into female athymic nude mice (5×10^6 cells/mouse) and allowed to form palpable tumors. Once the tumors reached approximately 60 mm^3, the animals were treated orally with (−)-trans-3-(5,6-dihydro-4H-pyrrolo[3,2,1-ij]quinolin-1-yl)-4(1H-indol-3-yl) pyrrolidine-2,5-dione at 200 mg/kg or 300 mg/kg or vehicle control daily (5 consecutive days, followed by a 2 day dosing holiday). (−)-trans-3-(5,6-dihydro-4H-pyrrolo[3,2,1-ij]quinolin-1-yl)-4(1H-indol-3-yl)pyrrolidine-2,5-dione was formulated in PEG 400:20% Vitamin E TPGS (60:40). The animals received a total of 20 doses of (−)-trans-3-(5,6-dihydro-4H-pyrrolo[3,2,1-ij]quinolin-1-yl)-4(1H-indol-3-yl)pyrrolidine-2,5-dione or vehicle control. Tumors were measured throughout treatment and the post-treatment observation period. Each point represents the mean±SEM of ten tumors. (See FIG. 12)

O=C1NC(=O)C(c2cn3c4c(cccc24)CCC3)C1c1c[nH]c2ccccc12 (single isomer, unassigned; (-))
change in body weight (200 mg/kg and 300 mg/kg oral administration): no significant change in body weight | optimal tumor growth inhibition (200 mg/kg orally): 58% | optimal tumor growth inhibition (300 mg/kg orally): 60%
